Measurements: ChEMBL document CHEMBL1201862, “PubChem BioAssay data set” (2004)
Values belong to the compound of their own block, whether it stands above or below them. Activity calls are given as the source filed them.

Columns and labels:
[1] = target: Phosphoethanolamine/phosphocholine phosphatase (Homo sapiens, UniProt Q8TCT1); assay: SAR assay for compounds that inhibit PHOSPHO1. [Related pubchem assays (depositor defined):AID1545, AID1565, AID1574]
[2] = target: T1, Nucleotide-binding oligomerization domain-containing protein 1 (Homo sapiens, UniProt Q9Y239); assay: SAR analysis of NF-kappaB dependent luciferase using DAP as an inducer - Set 2. [Related pubchem assays (depositor defined):AID1566, AID1575, AID1578, AID1579, AID1849, AID1852, AID2264]; type: functional
T1 sequence (Q9Y239 whole entry): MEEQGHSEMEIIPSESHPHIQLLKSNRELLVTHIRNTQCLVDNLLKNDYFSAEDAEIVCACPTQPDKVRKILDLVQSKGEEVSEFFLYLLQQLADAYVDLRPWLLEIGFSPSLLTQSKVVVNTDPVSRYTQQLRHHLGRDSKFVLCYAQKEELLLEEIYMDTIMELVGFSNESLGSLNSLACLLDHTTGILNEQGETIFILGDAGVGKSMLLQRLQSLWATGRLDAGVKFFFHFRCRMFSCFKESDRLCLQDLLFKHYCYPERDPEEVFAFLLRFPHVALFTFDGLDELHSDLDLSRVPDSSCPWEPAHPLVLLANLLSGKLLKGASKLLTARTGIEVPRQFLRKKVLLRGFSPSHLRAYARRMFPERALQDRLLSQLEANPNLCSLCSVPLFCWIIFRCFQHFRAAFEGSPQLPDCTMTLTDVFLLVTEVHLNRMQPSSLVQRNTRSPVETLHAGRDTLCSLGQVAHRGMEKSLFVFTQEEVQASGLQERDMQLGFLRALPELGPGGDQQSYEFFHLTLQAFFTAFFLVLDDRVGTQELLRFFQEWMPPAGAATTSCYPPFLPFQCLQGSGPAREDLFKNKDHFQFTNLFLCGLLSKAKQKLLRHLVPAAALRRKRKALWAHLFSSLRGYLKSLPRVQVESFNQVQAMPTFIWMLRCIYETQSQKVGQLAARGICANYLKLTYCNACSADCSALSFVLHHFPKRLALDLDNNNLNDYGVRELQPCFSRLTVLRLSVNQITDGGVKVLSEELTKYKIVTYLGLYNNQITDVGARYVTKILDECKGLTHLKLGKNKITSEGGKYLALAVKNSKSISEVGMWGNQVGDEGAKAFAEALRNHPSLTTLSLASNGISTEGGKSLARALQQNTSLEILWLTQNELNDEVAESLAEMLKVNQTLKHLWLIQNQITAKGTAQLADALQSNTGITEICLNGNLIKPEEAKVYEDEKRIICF

[3] = target: T2, Interleukin-8 (Homo sapiens, UniProt P10145); assay: SAR analysis of Tumor necrosis factor alpha (TNF-alpha) induced IL-8 secretion in MCF-7/NOD1 cells - Set 2. [Related pubchem assays (depositor defined):AID1575, AID2250, AID2260]; type: functional, cell-based
T2 sequence (P10145 whole entry): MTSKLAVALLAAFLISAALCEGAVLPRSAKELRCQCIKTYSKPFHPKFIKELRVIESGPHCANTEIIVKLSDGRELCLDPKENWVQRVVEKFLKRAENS

[4] = target: T2, Interleukin-8; assay: SAR analysis of GM-Tri-DAP induced IL-8 secretion in MCF-7/NOD1 cells - Set 2. [Related pubchem assays (depositor defined):AID1575, AID1578, AID2333]; type: functional, cell-based
[5] = target: Nucleotide-binding oligomerization domain-containing protein 2 (Homo sapiens, UniProt Q9HC29); assay: inhibition of NOD2 signaling – set 2, SAR follow-up (AID 2475); type: functional
Chain of Nucleotide-binding oligomerization domain-containing protein 2 (Q9HC29 whole entry, the tested form may be a part): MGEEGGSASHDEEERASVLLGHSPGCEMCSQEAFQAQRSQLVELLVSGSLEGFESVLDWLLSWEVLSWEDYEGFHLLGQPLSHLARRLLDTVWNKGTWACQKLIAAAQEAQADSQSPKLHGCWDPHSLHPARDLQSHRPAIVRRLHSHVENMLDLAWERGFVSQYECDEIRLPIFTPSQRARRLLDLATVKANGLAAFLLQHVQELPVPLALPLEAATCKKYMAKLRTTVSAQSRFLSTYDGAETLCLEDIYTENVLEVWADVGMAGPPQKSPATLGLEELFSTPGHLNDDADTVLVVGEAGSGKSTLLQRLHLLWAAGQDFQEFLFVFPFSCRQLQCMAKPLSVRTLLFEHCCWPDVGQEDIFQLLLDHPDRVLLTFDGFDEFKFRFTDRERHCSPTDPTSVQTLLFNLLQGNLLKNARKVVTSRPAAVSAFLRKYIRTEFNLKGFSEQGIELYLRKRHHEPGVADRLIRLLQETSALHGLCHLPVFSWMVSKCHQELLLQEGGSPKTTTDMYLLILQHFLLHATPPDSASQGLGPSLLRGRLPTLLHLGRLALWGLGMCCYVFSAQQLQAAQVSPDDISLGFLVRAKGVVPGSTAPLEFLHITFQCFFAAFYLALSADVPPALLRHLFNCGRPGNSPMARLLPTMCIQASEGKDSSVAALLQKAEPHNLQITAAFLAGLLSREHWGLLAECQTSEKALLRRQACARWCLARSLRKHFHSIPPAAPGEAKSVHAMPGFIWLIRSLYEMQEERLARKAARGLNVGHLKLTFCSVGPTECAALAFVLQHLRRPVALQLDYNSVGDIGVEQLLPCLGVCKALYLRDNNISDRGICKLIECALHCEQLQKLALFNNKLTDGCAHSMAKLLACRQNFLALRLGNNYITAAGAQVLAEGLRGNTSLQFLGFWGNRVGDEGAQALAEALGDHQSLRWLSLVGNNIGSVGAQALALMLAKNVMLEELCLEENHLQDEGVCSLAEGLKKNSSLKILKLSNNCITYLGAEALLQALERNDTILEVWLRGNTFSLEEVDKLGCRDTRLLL

[6] = test system: HEK293; assay: SAR analysis of compounds that are cytotoxic to HEK293 - Set 2. [Related pubchem assays (depositor defined):AID1575, AID1578, AID1849, AID2001, AID2333, AID2334, AID2335, AID2337, AID2800]; type: functional, cell-based; details: Homo sapiens
[7] = target: T1, Nucleotide-binding oligomerization domain-containing protein 1; assay: SAR analysis of compounds that inhibit NOD1 - Set 2. [Related pubchem assays (depositor defined):AID1566, AID1575, AID1578, AID1849, AID1852, AID2333, AID2335, AID2798]; type: functional
[8] = target: T1, Nucleotide-binding oligomerization domain-containing protein 1; assay: SAR analysis of compounds that inhibit NOD1 - Set 3. [Related pubchem assays (depositor defined):AID1566, AID1575, AID1578, AID1849, AID1852, AID2333, AID2335, AID2466]; type: functional
[9] = test system: HEK293; assay: SAR analysis of compounds that are cytotoxic to HEK293 - Set 3. [Related pubchem assays (depositor defined):AID1575, AID1578, AID1848, AID1849, AID2001, AID2333, AID2334, AID2335, AID2337, AID2469]; type: functional, cell-based; details: Homo sapiens
[10] = target: T3, Short transient receptor potential channel 4 (Mus musculus, UniProt Q9QUQ5); assay: block of DAMGO-driven TRPC4 calcium entry – cell-based, HEK293 TRPC4/mu-opioid, Fluo-4 calcium, dose response (AID 434942); type: functional;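 also: potency of inhibitors blocking the TRPC4 calcium response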
T3 sequence (Q9QUQ5 whole entry): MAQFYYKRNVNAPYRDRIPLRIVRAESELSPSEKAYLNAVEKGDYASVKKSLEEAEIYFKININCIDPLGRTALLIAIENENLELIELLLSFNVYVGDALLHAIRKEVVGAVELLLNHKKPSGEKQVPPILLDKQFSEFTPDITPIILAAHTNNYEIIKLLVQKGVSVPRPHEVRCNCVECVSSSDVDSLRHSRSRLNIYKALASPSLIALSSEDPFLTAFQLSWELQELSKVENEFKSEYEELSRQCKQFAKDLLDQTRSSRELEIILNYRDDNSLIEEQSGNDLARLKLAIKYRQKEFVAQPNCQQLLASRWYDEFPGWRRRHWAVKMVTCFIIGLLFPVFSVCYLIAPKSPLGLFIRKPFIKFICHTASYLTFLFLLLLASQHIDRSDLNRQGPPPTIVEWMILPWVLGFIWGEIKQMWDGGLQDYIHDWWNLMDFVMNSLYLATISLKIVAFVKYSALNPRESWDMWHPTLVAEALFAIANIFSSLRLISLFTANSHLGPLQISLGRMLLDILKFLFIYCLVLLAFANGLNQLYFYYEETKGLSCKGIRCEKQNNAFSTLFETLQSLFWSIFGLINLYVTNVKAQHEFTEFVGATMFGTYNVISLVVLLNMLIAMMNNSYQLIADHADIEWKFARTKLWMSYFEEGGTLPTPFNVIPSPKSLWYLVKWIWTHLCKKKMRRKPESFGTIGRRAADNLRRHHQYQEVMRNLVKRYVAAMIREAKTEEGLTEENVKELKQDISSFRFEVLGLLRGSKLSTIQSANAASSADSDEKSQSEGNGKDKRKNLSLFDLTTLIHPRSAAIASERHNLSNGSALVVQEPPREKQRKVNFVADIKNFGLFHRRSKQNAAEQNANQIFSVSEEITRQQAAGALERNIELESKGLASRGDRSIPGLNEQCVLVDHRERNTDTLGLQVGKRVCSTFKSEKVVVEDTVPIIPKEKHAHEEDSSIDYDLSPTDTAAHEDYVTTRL

Chain of Phosphoethanolamine/phosphocholine phosphatase (Q8TCT1 whole entry, the tested form may be a part): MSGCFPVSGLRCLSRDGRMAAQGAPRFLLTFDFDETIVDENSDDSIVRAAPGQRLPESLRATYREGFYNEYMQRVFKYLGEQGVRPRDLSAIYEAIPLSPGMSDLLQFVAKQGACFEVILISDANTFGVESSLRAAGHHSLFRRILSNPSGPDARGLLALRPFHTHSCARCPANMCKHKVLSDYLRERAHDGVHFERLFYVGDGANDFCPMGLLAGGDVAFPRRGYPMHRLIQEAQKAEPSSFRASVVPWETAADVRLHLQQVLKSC

IC50 [1]: 2.59 µM (inactive)
Structure (SMILES): c1ccc(CNc2nc(-c3ccccc3)[n+](-c3ccccc3)s2)cc1

Structure (SMILES): CCCCn1c(SCC(=O)Nc2nnc(CC)s2)nc2c1c(=O)n(C)c(=O)n2C
IC50 [2]: > 25 µM (inactive)
IC50 [3]: > 25 µM (inactive)
IC50 [4]: > 25 µM (inactive)
IC50 [5]: 7.19 µM (active)
IC50 [6]: > 20 µM (inactive)
IC50 [7]: 7.92 µM (active)
IC50 [8]: 9.39 µM (active)
IC50 [9]: > 20 µM (inactive)

EC50 [10]: 9.44 µM (active)
Structure (SMILES): CCOC(=O)C1(Cc2cccc(OC)c2)CCN(Cc2cccc(O)c2)CC1
